Experimental data reported in patent US20020082263A1, “Heterocycle derivatives as PPAR-gamma agonists” (priority 2000, published 2002).
pEC50: −log10 of the molar value.

Assays:
[1] = system: db/db mice (C578BL/KsJ-db/db Jcl); test: Effect on serum glucose and serum insulin in db/db mice; format: in vivo, mouse; settings: oral; for Serum Glucose (% reduction) / Serum Insulin (% reduction): blood 1.5 h after last dose vs pretreatment blood, mean ± SEM
Protocol: Compounds prepared in accordance with Examples 8 and 36 were evaluated for their effect on serum glucose and serum insulin in db/db mice (C578BL/KsJ-db/db Jcl). The compounds were dissolved in a vehicle consisting of 2% Tween80 in distilled water and administered orally. Dosage volume was 10 ml/kg body weight. All aspects of the work including experimentation and disposal of the animals was performed in general accordance with the International Guiding Principles for Biomedical Research Involving Animals (CIOMS Publication No. ISBN 92 90360194, 1985). Glucose-HA Assay kits (Wako, Japan) were used for determination of serum glucose and ELISA Mouse Insulin Assay kits (SPI bio, France) were utilized for determination of insulin. The positive control was troglitazone (Helios Pharmaceutical, Louisville, Ky.).
The animals were divided into twenty groups of four animals each. The animals weighed 52±5 gms at age 8-10 weeks. During the experiment the animals were provided free access to laboratory chow (Fwusow Industry Co., Taiwan) and water
Prior to any treatment a blood sample (pretreatment blood) was taken from each animal. Four groups of animals, the vehicle groups, received only doses of the vehicle. Each of the vehicle groups received of 100, 30, 10 or 1 ml/kg body weight of the vehicle orally. […] The compound of Example 8 was administered orally as a solution (10 ml/kg body weight in tween 80/water) to four groups of animals with each group receiving a different dose of the compound. The dosage rates were […] body weight with only one dosage rate administered to each group. […] The vehicle, positive control and test compound solutions were administered to the groups immediately, 24 hours and 48 hours after drawing the pretreatment blood. Blood was withdrawn (post treatment blood) 1.5 hours after administration of the last dose.
The serum glucose levels of the blood samples was determined enzymatically (Mutaratose-GOD) and the insulin levels by ELISA (mouse insulin assay kit). The mean ±SEM of each group was calculated and the percent inhibition of serum glucose and insulin was obtained by comparison between pretreatment blood and post treatment blood. The percentage of reduction of the serum glucose and insulin levels in the post treatment blood relative to the pretreatment blood was determined and the Unpaired students t test was applied for the comparison between the control and test solution groups and the vehicle group. A significant difference was considered at P<0.05.

[2] = target: T1, PPAR-gamma (Homo sapiens, UniProt P37231); test: Reporter gene assay in transfected HepG2 cells: transcriptional activation of a PPRE via a PPAR-gamma mediated pathway; format: cell-based; settings: transfected human hepatoma (HepG2) cells, 36-48 h exposure, reporter gene activity
T1 construct: host or cells: HepG2 (human hepatoma), transfected
T1 sequence (P37231 1-505): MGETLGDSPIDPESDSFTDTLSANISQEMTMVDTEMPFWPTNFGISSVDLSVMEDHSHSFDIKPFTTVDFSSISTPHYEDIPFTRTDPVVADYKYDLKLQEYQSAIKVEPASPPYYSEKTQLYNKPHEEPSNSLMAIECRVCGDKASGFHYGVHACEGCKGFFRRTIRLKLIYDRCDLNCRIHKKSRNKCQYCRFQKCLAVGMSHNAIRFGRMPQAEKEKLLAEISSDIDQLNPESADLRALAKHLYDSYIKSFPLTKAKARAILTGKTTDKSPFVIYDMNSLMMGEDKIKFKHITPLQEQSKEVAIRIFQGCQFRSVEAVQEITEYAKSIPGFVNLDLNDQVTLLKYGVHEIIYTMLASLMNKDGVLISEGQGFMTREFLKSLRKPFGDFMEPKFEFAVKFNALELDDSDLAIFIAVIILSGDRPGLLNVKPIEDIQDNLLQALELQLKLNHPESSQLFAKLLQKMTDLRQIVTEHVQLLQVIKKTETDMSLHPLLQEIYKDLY
Protocol: A reporter gene assay utilizing transfected human hepatoma (HepG2) cells is used to screen for compounds that transcriptionally activate a PPRE via a PPAR-gamma mediated pathway. Cells are exposed to experimental compounds dissolved in DMSO for 36-48 h prior to determination of reporter gene activity. 15dPGJ2 (2 μM) is used as positive control and vehicle (DMSO) is used as a negative control.

[3] = 100 mg/kg body weight, P<0.01, unpaired t test

COc1cc(CN2C[C@@H](CC(=O)NCC3CCCO3)N(C(=O)NC3CCCCC3)[C@@H](CC(C)C)C2=O)cc(OC)c1 (stereo partly drawn) [Example 8, N-Tetrahydrofurfuryl (R)-[1-cyclohexylcarbamoyl-4-(3,5-dimethoxybenzyl)-6-(S)-isobutyl-5-oxo-piperazin-2-yl]-acetamide]
Serum Glucose (% reduction) ([1]; 1 mg/kg at 0, 24 and 48 h): 9 ± 8% | Serum Insulin (% reduction) ([1]; 1 mg/kg at 0, 24 and 48 h): 3 ± 7% | Serum Glucose (% reduction) ([1]; 3 mg/kg at 0, 24 and 48 h): −1 ± 3% | Serum Insulin (% reduction) ([1]; 3 mg/kg at 0, 24 and 48 h): −7 ± 3% | Serum Glucose (% reduction) ([1]; 10 mg/kg at 0, 24 and 48 h): 18 ± 6% | Serum Insulin (% reduction) ([1]; 10 mg/kg at 0, 24 and 48 h): 1 ± 4% | Serum Glucose (% reduction) ([1]; 30 mg/kg at 0, 24 and 48 h): 14 ± 2% | Serum Insulin (% reduction) ([1]; 30 mg/kg at 0, 24 and 48 h): 5 ± 4% | Serum Glucose (% reduction) ([1]; 100 mg/kg at 0, 24 and 48 h): 41 ± 6% | Serum Insulin (% reduction) ([1]; 100 mg/kg at 0, 24 and 48 h): 6 ± 2.5% | reduction of serum glucose relative to the vehicle treated groups (in words) [1, 3]: significant reduction

CNC(=O)CC1CN(Cc2cc(OC)cc(OC)c2)C(=O)[C@H](CC(C)C)N1C(=O)NC1CCCCC1 (stereo partly drawn) [Example 32, N-Methyl[1-cyclohexylcarbamoyl-4-(3,5-dimethoxybenzyl)-6-(S)-isobutyl-5-oxo-piperazin-2-yl]-acetamide]
pEC50 [2]: 6.21

CCCCNC(=O)CC1CN(Cc2cc(OC)cc(OC)c2)C(=O)[C@H](CC(C)C)N1C(=O)NC1CCCCC1 (stereo partly drawn) [Example 35, N-Butyl[1-cyclohexylcarbamoyl-4-(3 ,5-dimethoxybenzyl)-6-(S)-isobutyl-5-oxo-piperazin-2-yl]-acetamide]
pEC50 [2]: 6.92

CCCCNC(=O)C[C@@H]1CN(Cc2cc(OC)cc(OC)c2)C(=O)[C@H](CC(C)C)N1C(=O)NC1CCCCC1 [Example 36, N-Butyl (R)-[1-cyclohexylcarbamoyl-4-(3 5-dimethoxybenzyl)-6-(S)-isobutyl-5-oxo-piperazin-2-yl]-acetamide]
Serum Glucose (% reduction) ([1]; 1 mg/kg at 0, 24 and 48 h): −1 ± 2% | Serum Insulin (% reduction) ([1]; 1 mg/kg at 0, 24 and 48 h): 8 ± 7% | Serum Glucose (% reduction) ([1]; 3 mg/kg at 0, 24 and 48 h): 0 ± 2% | Serum Insulin (% reduction) ([1]; 3 mg/kg at 0, 24 and 48 h): −9 ± 2% | Serum Glucose (% reduction) ([1]; 10 mg/kg at 0, 24 and 48 h): −4 ± 7% | Serum Insulin (% reduction) ([1]; 10 mg/kg at 0, 24 and 48 h): −9 ± 6% | Serum Glucose (% reduction) ([1]; 30 mg/kg at 0, 24 and 48 h): 37 ± 8% | Serum Insulin (% reduction) ([1]; 30 mg/kg at 0, 24 and 48 h): 1 ± 2% | reduction of serum glucose relative to the vehicle treated groups (in words) ([1]; 30 mg/kg body weight, P<0.05, unpaired t test): significant reduction | Serum Glucose (% reduction) ([1]; 100 mg/kg at 0, 24 and 48 h): 40 ± 7% | Serum Insulin (% reduction) ([1]; 100 mg/kg at 0, 24 and 48 h): 2 ± 4% | reduction of serum glucose relative to the vehicle treated groups (in words) [1, 3]: significant reduction

CCCC[C@H]1C(=O)N(Cc2cc(OC)cc(OC)c2)CC(CC(=O)NC)N1C(=O)NC1CCCCC1 (stereo partly drawn) [Example 41, N-Methyl[1-cyclohexylcarbamoyl-4-(3,5-dimethoxybenzyl)-6-(S)-butyl-5-oxo-piperazin-2-yl]-acetamide]
pEC50 [2]: 5.63

CCNC(=O)CC1CN(Cc2cc(OC)cc(OC)c2)C(=O)[C@H](CC(C)C)N1C(=O)NC1CCCCC1 (stereo partly drawn) [Example 42, N-Ethyl[1-cyclohexylcarbamoyl-4-(3,5-dimethoxybenzyl)-6-(S)-isobutyl-5-oxo-piperazin-2-yl]-acetamide]
pEC50 [2]: 6.60

COc1cc(CN2CC(CC(=O)NCCO)N(C(=O)NC3CCCCC3)[C@@H](CC(C)C)C2=O)cc(OC)c1 (stereo partly drawn) [Example 43, N-(2-Hydroxyethyl)[1-cyclohexylcarbamoyl-4-(3,5-dimethoxybenzyl)-6-(S)-isobutyl-5-oxo-piperazin-2-yl]-acetamide]
pEC50 [2]: < 6.00

Cc1c(C)c2c(c(C)c1O)CCC(C)(COc1ccc(CC3SC(=O)NC3=O)cc1)O2 (centres unmarked) [troglitazone, reference compound]
Serum Glucose (% reduction) ([1]; 10 mg/kg at 0, 24 and 48 h): 25±2%
